Series [1] is described as follows: Selectivity index, ratio of CC50 for human MRC5 cells to IC50 for amastigote form of Leishmania infantum MHOM/MA(BE)/67. The series is classed as functional.
The test system of series [2] is Trypanosoma brucei brucei. Description: Antiprotozoal activity against trypomastigote form of Trypanosoma brucei brucei 427 assessed as parasite growth inhibition. The series is classed as functional, organism-based.
A short description of series [3]: Lipophilicity, log P of the compound. The series is classed as physicochemical. As to conditions: octanol/water.
A short description of series [4]: Cytotoxicity against human MRC5 cells assessed as cell viability after 7 days by Alamar blue assay. Format: cell-based. (Resazurin is reduced to fluorescent resorufin, in cell work by metabolically active cells.)
A short description of series [5]: Selectivity index, ratio of CC50 for human MRC5 cells to IC50 for epimastigote form of Trypanosoma cruzi Tulahuen 2. Format: functional.
Series [6] in a line: Selectivity index, ratio of CC50 for human MRC5 cells to IC50 for trypomastigote form of Trypanosoma brucei rhodesiense STIB900. Format: functional.
Series [7] can be described thus: Selectivity index, ratio of CC50 for human MRC5 cells to IC50 for trypomastigote form of Trypanosoma brucei brucei 427. The series is classed as functional.
The test system of the next series is Trypanosoma cruzi. Nature of the series: Antiprotozoal activity against epimastigote form of Trypanosoma cruzi Tulahuen 2 assessed as parasite growth inhibition measured at day 5. Format: functional, organism-based. Conditions: Tulahuen 2, 120 h.
In another series the test system is Leishmania infantum. Nature of the series: Antiprotozoal activity against amastigote form of Leishmania infantum MHOM/MA(BE)/67 infected in mouse peritoneal macrophages assessed as reduction of intracellular parasite burden after 5 days by Giemsa staining method. Format: functional, organism-based. Conditions: MHOM/MA(BE)/67, 120 h.
In series [8] the test system is Trypanosoma brucei rhodesiense. Description: Antiprotozoal activity against trypomastigote form of Trypanosoma brucei rhodesiense STIB900 assessed as parasite growth inhibition after 72 hrs by Alamar blue assay. Format: functional, organism-based. As to conditions: STIB900, 72 h.

Molecules are shown by their SMILES.

The values that follow come from ChEMBL document CHEMBL2375345, “New antiprotozoal agents: their synthesis and biological evaluations” (Bioorg Med Chem Lett, 2013).

On to `O/N=C1\c2ccccc2-c2c1c(N1CCN(c3ccccn3)CC1)nc1ccc(Br)cc21`, for which the “Ratio CC50/IC50” value stood at 6.73 in [1], 9.13 in [5], 24.52 in series [6] and 7.34 in [7]. Further, the concentration for half-maximal inhibition (IC50) came to 8.17 µM in [2], 7.01 µM in the series with Trypanosoma cruzi, 9.51 µM with Leishmania infantum and 2.61 µM in series [8]. The compound further registered a logP in series [3] of 6.4. For the same compound, the CC50 at 168 h in [4] was determined as 64 µM.
Take `CC1(O)c2ccccc2-c2c1c(-n1ccnc1)nc1ccc(Br)cc21` (stereo not drawn): the “Ratio CC50/IC50” value was 0.9 in [1], 8.23 in series [5], 1.93 in series [6] and 0.61 in series [7]. Besides, the IC50 in [2] amounted to 18.8 µM; with Trypanosoma cruzi it was 1.39 µM; in the series on Leishmania infantum it was 12.7 µM; in series [8] it was 5.93 µM. The logP in [3] amounted to 3.86. Besides, the CC50 at 168 h in series [4] came to 11.5 µM.
For the compound `CC(=O)OC1(C)c2ccccc2-c2c1c(-n1ccnc1)nc1ccc(Br)cc21` (stereo not drawn), the “Ratio CC50/IC50” value in series [1] was determined as 1.52; in [5] it was 34.65; in [6], 4.53; in series [7], 1.11. Also, the half-inhibitory concentration (IC50) in [2] came to 29 µM; in the series with Trypanosoma cruzi, 0.93 µM; in the series on Leishmania infantum, 21.1 µM; in series [8], 7.11 µM. This compound yielded a logP in series [3] of 4.09. For the same compound, the CC50 at 168 h in series [4] is 32.2 µM.
For the compound `CCCCC(=O)OC1(C)c2ccccc2-c2c1c(-n1ccnc1)nc1ccc(Br)cc21` (stereo not drawn), the “Ratio CC50/IC50” value in series [1] was 3.84; in series [5], 14.91; in series [6], 3.74; in series [7], 2.68. Besides, the IC50 in series [2] is 8.11 µM; in the series on Trypanosoma cruzi it was 1.46 µM; in the series on Leishmania infantum it was 5.66 µM; in series [8] it was 5.81 µM. In [3], this compound showed a logP of 5.58. Also, the CC50 at 168 h in series [4] was determined as 21.8 µM.
Regarding `CC(NC(=O)OC(C)(C)C)C(=O)O/N=C1\c2ccccc2-c2c1c(N1CCN(c3ccccn3)CC1)nc1ccc(Br)cc21` (stereo not drawn), the “Ratio CC50/IC50” value in series [1] was 3.86; in series [5], 4.33; in [6], 16.3; in [7], 13.19. For the same compound, the IC50 in series [2] is 2.04 µM; in the series on Trypanosoma cruzi, 6.21 µM; with Leishmania infantum, 6.96 µM; in series [8] it was 1.65 µM. Also, the CC50 at 168 h in series [4] came to 26.9 µM.
For `CC(C)CC(NC(=O)OCC1c2ccccc2-c2ccccc21)C(=O)O/N=C1\c2ccccc2-c2c1c(N1CCN(c3ccccn3)CC1)nc1ccc(Br)cc21` (stereo not drawn), the “Ratio CC50/IC50” value in series [1] amounted to 4.28; in series [5] it was 1.8; in series [6] it was 8.94; in series [7], 1.85. The IC50 in series [2] was determined as 7.33 µM; in the series with Trypanosoma cruzi it was 7.52 µM; in the series on Leishmania infantum, 3.17 µM; in series [8], 1.52 µM. Also, the logP in series [3] is 8.3. Further, the CC50 at 168 h in [4] turned out to be 13.6 µM.
For `CC(O)c1cc(F)ccc1Oc1nc2ccc(NS(=O)(=O)c3cccc(C(F)(F)F)c3)cc2cc1Cc1ccccc1` (stereo not drawn), the IC50 in series [2] came to 2.18 µM; in the series with Trypanosoma cruzi it was 3.7 µM; in the series on Leishmania infantum it was 8.11 µM; in series [8], 1.46 µM. The same compound gave a logP in series [3] of 7.69. The CC50 at 168 h in series [4] was determined as 8 µM.
For `COc1cccc(N2CCN(CC(O)COC3(C)c4ccccc4-c4c3c(N3CCN(C(c5ccccc5)c5ccccc5)CC3)nc3ccc(Br)cc43)CC2)c1` (stereo not drawn), the “Ratio CC50/IC50” value stood at 2.04 in [1], 0.96 in series [5], 71.44 in series [6] and 30.26 in [7]. Moreover, the IC50 in series [2] came to 2.03 µM; in the series on Trypanosoma cruzi, 64 µM; in the series on Leishmania infantum, 30.1 µM; in series [8], 0.86 µM. Further, the CC50 at 168 h in series [4] turned out to be 61.4 µM.
Consider `CC1(O)c2ccccc2-c2c1c(OCC(F)(F)F)nc1ccc(Br)cc21` (stereo not drawn), for which the “Ratio CC50/IC50” value in [1] came to 2.48; in [5] it was 2.86; in series [6], 6.14; in series [7], 2.41. The half-maximal inhibitory concentration (IC50) in series [2] was 8.23 µM; in the series with Trypanosoma cruzi, 6.92 µM; with Leishmania infantum it was 8 µM; in series [8] it was 3.23 µM. For the same compound, the log partition coefficient (logP) in series [3] was 5.71. The CC50 at 168 h in [4] was 19.8 µM.
Consider `CC1(OCC2CO2)c2ccccc2-c2c1c(C(F)(F)F)nc1ccc(Br)cc21` (stereo not drawn), for which the “Ratio CC50/IC50” value was determined as 0.14 in series [1], 0.48 in series [5], 0.73 in [6] and 0.47 in series [7]. Further, the IC50 was 8.57 µM in series [2], 8.37 µM in the series on Trypanosoma cruzi, 27.3 µM in the series with Leishmania infantum and 5.49 µM in series [8]. In series [3], this compound registered a log partition coefficient (logP) of 5.23. The CC50 at 168 h in [4] was 4 µM.
Regarding `CC(C)(C)OC(=O)N1CCCC(C(=O)O/N=C2\c3ccccc3-c3c2c(C(F)(F)F)nc2ccc(Br)cc32)C1` (stereo not drawn), the “Ratio CC50/IC50” value is given as 0.72 in [1], 0.47 in series [5], 1.91 in series [6] and 0.77 in [7]. Besides, the IC50 in [2] was 7.56 µM; in the series on Trypanosoma cruzi, 12.3 µM; with Leishmania infantum, 8.11 µM; in series [8], 3.06 µM. The CC50 at 168 h in [4] stood at 5.84 µM.
Turning to `COc1nc2ccc(Br)cc2c2c1C(C)(OCC(O)Cn1ccnc1)c1ccccc1-2` (stereo not drawn), the “Ratio CC50/IC50” value in series [1] is 1.33; in series [5] it was 3.7; in [6] it was 6.83; in series [7], 3.94. The IC50 in [2] came out at 2.03 µM; in the series with Trypanosoma cruzi it was 2.16 µM; in the series on Leishmania infantum it was 6.01 µM; in series [8], 1.17 µM. In [3], this compound registered a log partition coefficient (logP) of 3.68. In [4], the CC50 at 168 h stood at 8 µM.
For `COc1nc2ccc(Br)cc2c2c1C(C)(OCC(O)Cn1ccc(-c3cccc(C(F)(F)F)c3)n1)c1ccccc1-2` (stereo not drawn), the “Ratio CC50/IC50” value in series [1] came out at 4.74; in series [5], 4.5; in [6] it was 19.29; in [7] it was 10.43. Moreover, the IC50 in series [2] is 2.31 µM; in the series with Trypanosoma cruzi, 5.35 µM; in the series on Leishmania infantum, 5.08 µM; in [8] it was 1.25 µM. In series [3], this compound returned a logP of 7.5. For the same compound, the CC50 at 168 h in [4] came to 24.1 µM.
Regarding `COc1nc2ccc(Br)cc2c2c1C(C)(OC(=O)N(C)C)c1ccccc1-2` (stereo not drawn), the “Ratio CC50/IC50” value in [1] is 1; in series [5] it was 8.62; in series [6] it was 12.12; in series [7], 7.77. Also, the IC50 in series [2] worked out at 8.23 µM; in the series on Trypanosoma cruzi, 7.42 µM; in the series on Leishmania infantum it was 64 µM; in [8] it was 5.28 µM. Moreover, in [3], the logP was 4.91. Moreover, the CC50 at 168 h in series [4] was 64 µM.
With `O=C1c2ccccc2-c2c1c(N1CCN(c3ccccn3)CC1)nc1ccc(Br)cc21`, the “Ratio CC50/IC50” value in series [1] was found to be 0.21; in [5], 0.63; in series [6], 0.72; in series [7], 0.56. Also, the IC50 is 7.69 µM in series [2], 6.87 µM with Trypanosoma cruzi, 20.3 µM in the series with Leishmania infantum and 5.98 µM in series [8]. In series [3], the logP was 6.01. In [4], the CC50 at 168 h was 4.33 µM.
As for `COc1nc2ccc(Br)cc2cc1C(c1ccccc1)n1cnc([N+](=O)[O-])c1` (stereo not drawn), the “Ratio CC50/IC50” value in series [1] turned out to be 1.25; in series [5], 9.19; in series [6] it was 145.45; in series [7] it was 29.62. Besides, the IC50 in [2] worked out at 2.16 µM; in the series with Trypanosoma cruzi, 6.96 µM; in the series on Leishmania infantum, 50.8 µM; in series [8] it was 0.44 µM. The CC50 at 168 h in series [4] worked out at 64 µM.
`COc1cccc(NC(=S)Nc2ccc3nc(Oc4ccc(F)cc4C(C)O)c(Cc4ccccc4)cc3c2)c1` (stereo not drawn): the “Ratio CC50/IC50” value is recorded as 8 in series [1] and 26.66 in [7]. Moreover, the IC50 is 2 µM in [2], 14.7 µM with Trypanosoma cruzi, 6.82 µM in the series with Leishmania infantum and 0.53 µM in [8]. The logP in series [3] is 7.86. Besides, the 50% cytotoxic concentration (CC50) at 168 h in series [4] came out at 64 µM.
Regarding `CC(c1cc(F)ccc1Oc1nc2ccc(-n3cc(-c4ccccc4)nn3)cc2cc1Cc1ccccc1)n1ccnc1` (stereo not drawn), the results for the “Ratio CC50/IC50” value in series [1] and in series [7] were 3.15 and 30.18, respectively. For the same compound, the IC50 was 2.04 µM in series [2], 1.93 µM in the series with Trypanosoma cruzi, 20.3 µM in the series with Leishmania infantum and 2.03 µM in series [8]. Further, in [3], the logP came out at 7.91. For the same compound, the CC50 at 168 h in series [4] amounted to 64 µM.
Take `COc1cccc(NC(=O)Nc2ccc3nc(Oc4ccc(F)cc4C(C)O)c(Cc4ccccc4)cc3c2)c1` (stereo not drawn): the IC50 in [2] is 2.04 µM; with Trypanosoma cruzi, 6.23 µM; in the series with Leishmania infantum, 8.11 µM; in series [8], 2.07 µM. Besides, in [3], the logP amounted to 6.72. For the same compound, the CC50 at 168 h in series [4] is 64 µM. Moreover, the “Ratio CC50/IC50” value in series [6] is listed as 30.18.
In the case of `COc1ccccc1NC(=S)Nc1ccc2nc(Oc3ccc(F)cc3C(C)O)c(Cc3ccccc3)cc2c1` (stereo not drawn), the entries for the “Ratio CC50/IC50” value in series [1] and in series [6] were 5.22 and 32.31, respectively. The IC50 is 1.79 µM in [2], 4.33 µM with Trypanosoma cruzi, 5.28 µM with Leishmania infantum and 0.53 µM in series [8]. The compound further yielded a log partition coefficient (logP) in [3] of 7.86. Also, the CC50 at 168 h in series [4] worked out at 16 µM.

As a reminder, the IC50 is the concentration at which inhibition is half-maximal. A word on the logP: it is the decadic logarithm of the partition coefficient of the neutral form, usually between octanol and water. A high value points to a more lipophilic compound. As a reminder, the CC50 is the concentration that lowers cell viability or growth by half.
